Results taken from patent US20230085307A1, “PYRIDAZINONE COMPOUND AND HERBICIDE” (NISSAN CHEMICAL CORPORATION, priority 2019, published 2023).

Assays:
[1] = tested on: redroot pigweed; assay: Test Example 5: herbicidal effect by foliage application, plastic box (Table 20, symbol N); format: in vivo, redroot pigweed (Amaranthus retroflexus); conditions: foliage application, 320 g/ha, evaluated three weeks after application
How it was run: (§1)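 Plants sown in sterilized diluvial soil and grown 14 days in a greenhouse at 25° C to 30° C, then sprayed on the foliage with the compound's emulsion diluted in water to a predetermined herbicide amount. Injury to weeds and crops scored three weeks after application on a visual rating scale.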

[2] = tested on: chickweed; assay: Test Example 4: herbicidal effect by soil treatment (Table 19, symbol P); format: in vivo, common chickweed (Stellaria media); conditions: amount of applied herbicide 320 g/ha
How it was run: (§2)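 Three weeks of greenhouse growth at 25° C. to 30° C. followed a uniform surface spray of water-diluted emulsion at a predetermined herbicide amount. Seeds had been sown beforehand under about 1.5 cm of sterilized diluvial soil. Grading followed criteria set out in an earlier test.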

[3] = tested on: velvetleaf; assay: Test Example 4: herbicidal effect by soil treatment (Table 19, symbol M); format: in vivo, velvetleaf (Abutilon theophrasti); conditions: amount of applied herbicide 320 g/ha
How it was run: as §2

[4] = tested on: late watergrass; assay: Test Example 1: herbicidal activity, application before weed generation under submerged conditions (Table 16, symbol A); format: in vivo, late watergrass (Echinochloa oryzicola); conditions: 320 g/ha applied herbicide
How it was run: (§3)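 Emulsion formulation, water-diluted to set dose, was put onto the flooded surface (4 cm depth, alluvial soil) the same day weeds were sown and 2.5-leaf rice transplanted. After 3 weeks at 25-30 °C under glass, each species was rated 0 (≤5% kill) to 5 (≥90% kill).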

[5] = tested on: wild oat; assay: Test Example 5: herbicidal effect by foliage application, plastic box (Table 20, symbol I); format: in vivo, wild oat (Avena fatua); conditions: foliage application, 320 g/ha, evaluated three weeks after application
How it was run: as §1

[6] = tested on: blackgrass; assay: Test Example 5: herbicidal effect by foliage application, plastic box (Table 20, symbol J); format: in vivo, blackgrass (Alopecurus myosuroides); conditions: foliage application, 320 g/ha, evaluated three weeks after application
How it was run: as §1

[7] = tested on: Japanese bulrush; assay: Test Example 1: herbicidal activity, application before weed generation under submerged conditions (Table 16, symbol B); format: in vivo, Japanese bulrush (Schoenoplectus juncoides); conditions: 320 g/ha applied herbicide
How it was run: as §3

[8] = tested on: windgrass; assay: Test Example 4: herbicidal effect by soil treatment (Table 19, symbol L); format: in vivo, windgrass (Apera spica-venti); conditions: amount of applied herbicide 320 g/ha
How it was run: as §2

[9] = tested on: Chinese sprangletop; assay: Test Example 3: herbicidal effect by foliage application, Wagner pot (Table 18, symbol D); format: in vivo, chinese sprangletop (Leptochloa chinensis); conditions: amount of applied herbicide 320 g/ha
How it was run: (§4)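 Plants were sown in alluvial soil held under 0.1–0.5 cm standing water and grown 14 days in a greenhouse at 25–30 °C. An emulsifiable formulation, water-diluted to the set dose, was then sprayed onto the foliage, and effects were scored three weeks later using previously defined criteria.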

[10] = tested on: southern crabgrass; assay: Test Example 5: herbicidal effect by foliage application, plastic box (Table 20, symbol F); format: in vivo, southern crabgrass (Digitaria ciliaris); conditions: foliage application, 320 g/ha, evaluated three weeks after application
How it was run: as §1

[11] = tested on: chickweed; assay: Test Example 5: herbicidal effect by foliage application, plastic box (Table 20, symbol P); format: in vivo, common chickweed (Stellaria media); conditions: foliage application, 320 g/ha, evaluated three weeks after application
How it was run: as §1

[12] = tested on: windgrass; assay: Test Example 5: herbicidal effect by foliage application, plastic box (Table 20, symbol L); format: in vivo, windgrass (Apera spica-venti); conditions: foliage application, 320 g/ha, evaluated three weeks after application
How it was run: as §1

[13] = tested on: oval-leafed pondweed; assay: Test Example 1: herbicidal activity, application before weed generation under submerged conditions (Table 16, symbol C); format: in vivo, oval-leafed pondweed (Monochoria vaginalis); conditions: 320 g/ha applied herbicide
How it was run: as §3

[14] = tested on: green foxtail; assay: Test Example 4: herbicidal effect by soil treatment (Table 19, symbol G); format: in vivo, green foxtail (Setaria viridis); conditions: amount of applied herbicide 320 g/ha
How it was run: as §2

[15] = tested on: green foxtail; assay: Test Example 5: herbicidal effect by foliage application, plastic box (Table 20, symbol G); format: in vivo, green foxtail (Setaria viridis); conditions: foliage application, 320 g/ha, evaluated three weeks after application
How it was run: as §1

[16] = tested on: persian speedwell; assay: Test Example 5: herbicidal effect by foliage application, plastic box (Table 20, symbol R); format: in vivo, Persian speedwell (Veronica persica); conditions: foliage application, 320 g/ha, evaluated three weeks after application
How it was run: as §1

[17] = tested on: barnyard grass; assay: Test Example 5: herbicidal effect by foliage application, plastic box (Table 20, symbol H); format: in vivo, barnyard grass (Echinochloa crus-galli); conditions: foliage application, 320 g/ha, evaluated three weeks after application
How it was run: as §1

[18] = tested on: barnyard grass; assay: Test Example 3: herbicidal effect by foliage application, Wagner pot (Table 18, symbol H); format: in vivo, barnyard grass (Echinochloa crus-galli); conditions: amount of applied herbicide 320 g/ha
How it was run: as §4

[19] = tested on: southern crabgrass; assay: Test Example 4: herbicidal effect by soil treatment (Table 19, symbol F); format: in vivo, southern crabgrass (Digitaria ciliaris); conditions: amount of applied herbicide 320 g/ha
How it was run: as §2

[20] = tested on: barnyard grass; assay: Test Example 4: herbicidal effect by soil treatment (Table 19, symbol H); format: in vivo, barnyard grass (Echinochloa crus-galli); conditions: amount of applied herbicide 320 g/ha
How it was run: as §2

[21] = tested on: wild oat; assay: Test Example 4: herbicidal effect by soil treatment (Table 19, symbol I); format: in vivo, wild oat (Avena fatua); conditions: amount of applied herbicide 320 g/ha
How it was run: as §2

[22] = tested on: lambsquarters; assay: Test Example 4: herbicidal effect by soil treatment (Table 19, symbol O); format: in vivo, lambsquarters (Chenopodium album); conditions: amount of applied herbicide 320 g/ha
How it was run: as §2

[23] = tested on: false cleavers; assay: Test Example 5: herbicidal effect by foliage application, plastic box (Table 20, symbol Q); format: in vivo, false cleavers (Galium spurium); conditions: foliage application, 320 g/ha, evaluated three weeks after application
How it was run: as §1

[24] = tested on: blackgrass; assay: Test Example 4: herbicidal effect by soil treatment (Table 19, symbol J); format: in vivo, blackgrass (Alopecurus myosuroides); conditions: amount of applied herbicide 320 g/ha
How it was run: as §2

[25] = tested on: rice flat sedge; assay: Test Example 3: herbicidal effect by foliage application, Wagner pot (Table 18, symbol E); format: in vivo, rice flat sedge (Cyperus iria); conditions: amount of applied herbicide 320 g/ha
How it was run: as §4

[26] = tested on: Italian ryegrass; assay: Test Example 4: herbicidal effect by soil treatment (Table 19, symbol K); format: in vivo, Italian ryegrass (Lolium multiflorum); conditions: amount of applied herbicide 320 g/ha
How it was run: as §2

[27] = tested on: lambsquarters; assay: Test Example 5: herbicidal effect by foliage application, plastic box (Table 20, symbol O); format: in vivo, lambsquarters (Chenopodium album); conditions: foliage application, 320 g/ha, evaluated three weeks after application
How it was run: as §1

[28] = tested on: redroot pigweed; assay: Test Example 4: herbicidal effect by soil treatment (Table 19, symbol N); format: in vivo, redroot pigweed (Amaranthus retroflexus); conditions: amount of applied herbicide 320 g/ha
How it was run: as §2

[29] = tested on: persian speedwell; assay: Test Example 4: herbicidal effect by soil treatment (Table 19, symbol R); format: in vivo, Persian speedwell (Veronica persica); conditions: amount of applied herbicide 320 g/ha
How it was run: as §2

[30] = tested on: Italian ryegrass; assay: Test Example 5: herbicidal effect by foliage application, plastic box (Table 20, symbol K); format: in vivo, Italian ryegrass (Lolium multiflorum); conditions: foliage application, 320 g/ha, evaluated three weeks after application
How it was run: as §1

[31] = tested on: velvetleaf; assay: Test Example 5: herbicidal effect by foliage application, plastic box (Table 20, symbol M); format: in vivo, velvetleaf (Abutilon theophrasti); conditions: foliage application, 320 g/ha, evaluated three weeks after application
How it was run: as §1

## Cc1nn(C)c(=O)c(-c2c(-c3ccc4c(c3)OCO4)sc3ccc(Cl)cc23)c1O [2-125]
[1]
  herbicidal effect on N: redroot pigweed: 3 (Herbicidal rate of 40% or more and less than 70%)
[2]
  P: chickweed, herbicidal effect rating: 5 (Herbicidal rate of 90% or more (almost completely withered))
[3]
  M: velvetleaf, herbicidal effect rating: 3 (Herbicidal rate of 40% or more and less than 70%)
[4]
  Herbicidal effect on A: late watergrass (grade 0-5): 0 (Herbicidal rate of 5% or less (almost no effect))
[5]
  herbicidal effect on I: wild oat: 0 (Herbicidal rate of 5% or less (almost no effect))
[6]
  herbicidal effect on J: blackgrass: 0 (Herbicidal rate of 5% or less (almost no effect))
[7]
  Herbicidal effect on B: Japanese bulrush (grade 0-5): 2 (Herbicidal rate of 20% or more and less than 40%)
[8]
  L: windgrass, herbicidal effect rating: 0 (Herbicidal rate of 5% or less (almost no effect))
[9]
  herbicidal effect on D: Chinese sprangletop: 3 (Herbicidal rate of 40% or more and less than 70%)
[10]
  herbicidal effect on F: southern crabgrass: 0 (Herbicidal rate of 5% or less (almost no effect))
[11]
  herbicidal effect on P: chickweed: 5 (Herbicidal rate of 90% or more (almost completely withered))
[12]
  herbicidal effect on L: windgrass: 0 (Herbicidal rate of 5% or less (almost no effect))
[13]
  Herbicidal effect on C: oval-leafed pondweed (grade 0-5): 0 (Herbicidal rate of 5% or less (almost no effect))
[14]
  G: green foxtail, herbicidal effect rating: 0 (Herbicidal rate of 5% or less (almost no effect))
[15]
  herbicidal effect on G: green foxtail: 0 (Herbicidal rate of 5% or less (almost no effect))
[16]
  herbicidal effect on R: persian speedwell: 5 (Herbicidal rate of 90% or more (almost completely withered))
[17]
  herbicidal effect on H: barnyard grass: 2 (Herbicidal rate of 20% or more and less than 40%)
[18]
  herbicidal effect on H: barnyard grass: 4 (Herbicidal rate of 70% or more and less than 90%)
[19]
  F: southern crabgrass, herbicidal effect rating: 0 (Herbicidal rate of 5% or less (almost no effect))
[20]
  H: barnyard grass, herbicidal effect rating: 0 (Herbicidal rate of 5% or less (almost no effect))
[21]
  I: wild oat, herbicidal effect rating: 0 (Herbicidal rate of 5% or less (almost no effect))
[22]
  O: lambsquarters, herbicidal effect rating: 4 (Herbicidal rate of 70% or more and less than 90%)
[23]
  herbicidal effect on Q: false cleavers: 3 (Herbicidal rate of 40% or more and less than 70%)
[24]
  J: blackgrass, herbicidal effect rating: 0 (Herbicidal rate of 5% or less (almost no effect))
[25]
  herbicidal effect on E: rice flat sedge: 5 (Herbicidal rate of 90% or more (almost completely withered))
[26]
  K: Italian ryegrass, herbicidal effect rating: 0 (Herbicidal rate of 5% or less (almost no effect))
[27]
  herbicidal effect on O: lambsquarters: 4 (Herbicidal rate of 70% or more and less than 90%)
[28]
  N: redroot pigweed, herbicidal effect rating: 5 (Herbicidal rate of 90% or more (almost completely withered))
[29]
  R: persian speedwell, herbicidal effect rating: 5 (Herbicidal rate of 90% or more (almost completely withered))
[30]
  herbicidal effect on K: Italian ryegrass: 0 (Herbicidal rate of 5% or less (almost no effect))
[31]
  herbicidal effect on M: velvetleaf: 4 (Herbicidal rate of 70% or more and less than 90%)
